# Measurements taken from patent US10274488B2, “Glycan arrays on PTFE-like aluminum coated glass slides and related methods” (Academia Sinica, priority 2008, dated 2019).
# Experiments:
# Type in all cases: biochemical, Clostridium thermocellum
# exoglucanase L3 [1] = experiment: Enzymatic hydrolysis in solution with purified exoglucanase L3, MS-TOF assay; conditions: reaction in solution
# Procedure: (§1) To verify, the exoglucanases (L3) and endoglucanase (44A) were prepared according methods well known in the literature with minor modifications. First, enzymatic hydrolysis reactions were conducted in solution with the purified enzymes using substrates 8, 9 and 10. At the completion of the reaction, the solution mixtures were transferred to the PTFE-like ACG slide, and prepared by using the same washing procedures before being subjected to MS-TOF assay.
# (§2) For each carbohydrate, a specific enzyme was added: (a) is the control run without enzymes, (b) is exoglucanase L3, and (c) is endoglucanase 44A. […]
# (§3) Cellulase was prepared (5 U/mL in 25 mM pH 5.05 NaOAc buffer solution). Substrate was also dissolved in NaOAc buffer solution (25 mM, pH 5.05) to give 0.5 mM substrate solution. Add 100 uL cellulase solution to 100 uL substrate solution in eppendorf to have a 2.5 U/mL cellulase solution with 0.25 mM substrate. This solution was incubated in 37° C. for 18 hours. Add 100 μL incubated solution onto the slide loaded in FAST® Frame. Put the slide in dry box to remove the water, and then use high vacuum to remove trace water. 100 μL water was used to rinse each well of the FAST® Frame multi-slide plate to solve and remove the salt of the buffer solution. Remove any residual water on the plate by high vacuum and then analyzed the slide by MALDI-TOF Ultra-Flex II.
# (§4) The genomic DNA of Sulfolobus solfataricus (ATCC 35092) and Clostridium thermocellum (ATCC 27405) were obtained from the ATCC biological resource center. The Sso7d (NCBI accession number: AAK42090) gene fragment was amplified directly from the Sulfolobus solfataricus genome by polymerase chain reaction (PCR) with forward 5′ […] 3′ (SEQ ID NO: 1) and reverse 5′ […] 3′ (SEQ ID NO: 2) primers. The PCR product encoding Sso7d was digested with NdeI and BamHI and subsequently cloned into expression vector pET-28a (Novagen) to generate pET-28-Sso7d. […]
# endoglucanase 44A = experiment: Enzymatic hydrolysis in solution with purified endoglucanase 44A, MS-TOF assay; conditions: reaction in solution
# Procedure: as §1, §2, §3, §4
# exoglucanase L3 [2] = experiment: Enzymatic hydrolysis on the PTFE-like ACG surface with exoglucanase L3, MS-TOF assay; conditions: substrate immobilized on the PTFE-like ACG surface, 24 hours of incubation
# Procedure: as §2
# For comparison and as illustrated according to implementations shown in FIG. 23, substrate 8, 9, and 10 were immobilized on the PTFE-like ACG surface and carried out the cellulase hydrolysis on the surface directly, after the same washing procedures, these slides were subjected to MS-TOF assay. […] The endoglucanase 44A can't accept compound 8 or 9 as a substrate. […] From the above results, the cellotetraose substrate 10 was the best carbohydrate to create array on the PTFE-like ACG surface for the experiments conducted. By using this array, the activity and specificity of unknown cellulase may be examined.
# Cellulase was prepared (5 U/mL in 25 mM pH 5.05 NaOAc buffer solution). Substrate was also dissolved in NaOAc buffer solution (25 mM, pH 5.05) to give 0.5 mM substrate solution. Add 50 μL cellulase solution to 50 μL substrate solution onto the glass slide which was loaded in FAST® Frame multi-slide plate to have a 2.5 U/mL cellulase solution with 0.25 mM substrate. […] Put the slide in dry box to remove the water, and then use high vacuum to remove trace water. 100 uL water was used to rinse each well of the FAST® Frame multi-slide plate to solve and remove the salt of the buffer solution. Remove any residual water on the plate by high vacuum and then analyzed the slide by MALDI-TOF Ultra-Flex II.
# The genomic DNA of Sulfolobus solfataricus (ATCC 35092) and Clostridium thermocellum (ATCC 27405) were obtained from the ATCC biological resource center. The Sso7d (NCBI accession number: AAK42090) gene fragment was amplified directly from the Sulfolobus solfataricus genome by polymerase chain reaction (PCR) with forward 5′ […] 3′ (SEQ ID NO: 1) and reverse 5′ […] 3′ (SEQ ID NO: 2) primers. […]
Compound,Cleavage of the substrate by exoglucanase L3 (in words) (exoglucanase L3 [1]),Cleavage of the substrate by endoglucanase 44A (in words) (endoglucanase 44A),Cleavage of the substrate by exoglucanase L3 (in words) (exoglucanase L3 [2])
"O=C(NCCCCCO[C@@H]1O[C@H](CO)[C@@H](O[C@@H]2O[C@H](CO)[C@@H](O)[C@H](O)[C@H]2O)[C@H](O)[C@H]1O)OCCCC(F)(F)C(F)(F)C(F)(F)C(F)(F)C(F)(F)C(F)(F)C(F)(F)C(F)(F)F [Compound 8, [(4,4,5,5,6,6,7,7,8,8,9,9,10,10,11,11,12,12,12-nonadecafluorododecoxycarbonyl-amino)pentyl] ß-D-cellobioside]",slowly,can't accept,only cleaved a fraction
"O=C(NCCCCCO[C@@H]1O[C@H](CO)[C@@H](O[C@@H]2O[C@H](CO)[C@@H](O[C@@H]3O[C@H](CO)[C@@H](O)[C@H](O)[C@H]3O)[C@H](O)[C@H]2O)[C@H](O)[C@H]1O)OCCCC(F)(F)C(F)(F)C(F)(F)C(F)(F)C(F)(F)C(F)(F)C(F)(F)C(F)(F)C(F)(F)F [Compound 9, [(4,4,5,5,6,6,7,7,8,8,9,9,10,10,11,11,12,12,12-nonadecafluorododecoxycarbonyl-amino)pentyl] ß-D-glucopyranosyl-(1→4)-ß-D-glucopyranosyl-(1→4)- -ß-D-glucopyranoside]",quickly,can't accept,cleaved the cellobiose quickly
